Nine molecules from patent US20160311831A1, “Imidazotriazinones as PDE1 Inhibitors” (H. Lundbeck A/S, priority 2015, published 2016) can be followed below.

Holding throughout (format): biochemical
One assay concerns the target PDE9 (Homo sapiens, UniProt O76083). The experiment in a line: PDE9 inhibition assay, SPA with 3H-cAMP. The following applies: compound at 10 microM; 10 nM 3H-cAMP, 1 hr incubation. As for the experimental part:
A PDE9 assay may for example, be performed as follows: The assay is performed in 60 μL samples containing a fixed amount of the relevant PDE enzyme (sufficient to convert 20-25% of the cyclic nucleotide substrate), a buffer (50 mM HEPES7.6; 10 mM MgCl2; 0.02% Tween20), 0.1 mg/mL BSA, 225 pCi of ^3H-labelled cyclic nucleotide substrate, tritium labeled cAMP to a final concentration of 5 nM and varying amounts of inhibitors. Reactions are initiated by addition of the cyclic nucleotide substrate, and reactions are allowed to proceed for one hr at room temperature before being terminated through mixing with 15 μL 8 mg/mL yttrium silicate SPA beads (Amersham). The beads are allowed to settle for one hr in the dark before the plates are counted in a Wallac 1450 Microbeta counter. The measured signal can be converted to activity relative to an uninhibited control (100%) and IC50 values can be calculated using the Xlfit extension to EXCEL.
In the context of the present invention the assay was performed in 60 uL assay buffer (50 mM HEPES pH 7.6; 10 mM MgCl2; 0.02% Tween20) containing enough PDE9 to convert 20-25% of 10 nM ^3H-cAMP and varying amounts of inhibitors. Following a 1 hr incubation the reactions were terminated by addition of 15 uL 8 mg/mL yttrium silicate SPA beads (Amersham). The beads were allowed to settle for one hr in the dark before the plates were counted in a Wallac 1450 Microbeta counter.

The target in the next assay is PDE1A (Homo sapiens, UniProt P54750). In words: PDE1 inhibition assay (PDE1A), SPA with tritium labelled cAMP. The following applies: 15 nM tritium labelled cAMP, 1 hr at room temperature. The method, then: (§1) PDE1A, PDE1B and PDE1C assays were performed as follows: the assays was performed in 60 μL samples containing a fixed amount of the PDE1 enzym1 (sufficient to convert 20-25% of the cyclic nucleotide substrate), a buffer (50 mM HEPES pH 7.6; 10 mM MgCl2; 0.02% Tween20), 0.1 mg/mL BSA, 15 nM tritium labelled cAMP and varying amounts of inhibitors. Reactions were initiated by addition of the cyclic nucleotide substrate, and reactions were allowed to proceed for 1 hr at room temperature before being terminated through mixing with 20 μL (0.2 mg) yttrium silicate SPA beads (PerkinElmer). The beads were allowed to settle for 1 hr in the dark before the plates were counted in a Wallac 1450 Microbeta counter. The measured signals were converted to activity relative to an uninhibited control (100%) and IC50 values were calculated using XIFit (model 205, IDBS).
Chain of PDE1A (P54750 whole entry): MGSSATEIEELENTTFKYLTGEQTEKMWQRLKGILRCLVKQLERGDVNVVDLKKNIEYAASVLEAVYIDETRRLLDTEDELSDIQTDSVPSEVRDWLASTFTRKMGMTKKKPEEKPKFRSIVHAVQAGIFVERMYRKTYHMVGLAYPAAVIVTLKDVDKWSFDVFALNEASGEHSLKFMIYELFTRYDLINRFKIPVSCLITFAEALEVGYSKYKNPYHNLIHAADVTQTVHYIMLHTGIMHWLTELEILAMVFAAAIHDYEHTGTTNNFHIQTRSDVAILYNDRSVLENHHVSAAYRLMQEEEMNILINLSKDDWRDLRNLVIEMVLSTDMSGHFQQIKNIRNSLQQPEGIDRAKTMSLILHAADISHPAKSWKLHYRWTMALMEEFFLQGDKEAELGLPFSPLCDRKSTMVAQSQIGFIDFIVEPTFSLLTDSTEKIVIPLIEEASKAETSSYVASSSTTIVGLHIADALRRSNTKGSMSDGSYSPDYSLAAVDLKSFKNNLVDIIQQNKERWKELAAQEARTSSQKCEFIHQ

Another assay concerns the target PDE1B (Homo sapiens, UniProt Q01064). The experiment in a line: PDE1 inhibition assay (PDE1B), SPA with tritium labelled cAMP. The note with it: 15 nM tritium labelled cAMP, 1 hr at room temperature. As for the experimental part: as §1
In a further assay the target is PDE1C (Homo sapiens, UniProt Q14123). The experiment in a line: PDE1 inhibition assay (PDE1C), SPA with tritium labelled cAMP. The following applies: 15 nM tritium labelled cAMP, 1 hr at room temperature. The method, then: as §1
Chain of PDE1C (Q14123 whole entry): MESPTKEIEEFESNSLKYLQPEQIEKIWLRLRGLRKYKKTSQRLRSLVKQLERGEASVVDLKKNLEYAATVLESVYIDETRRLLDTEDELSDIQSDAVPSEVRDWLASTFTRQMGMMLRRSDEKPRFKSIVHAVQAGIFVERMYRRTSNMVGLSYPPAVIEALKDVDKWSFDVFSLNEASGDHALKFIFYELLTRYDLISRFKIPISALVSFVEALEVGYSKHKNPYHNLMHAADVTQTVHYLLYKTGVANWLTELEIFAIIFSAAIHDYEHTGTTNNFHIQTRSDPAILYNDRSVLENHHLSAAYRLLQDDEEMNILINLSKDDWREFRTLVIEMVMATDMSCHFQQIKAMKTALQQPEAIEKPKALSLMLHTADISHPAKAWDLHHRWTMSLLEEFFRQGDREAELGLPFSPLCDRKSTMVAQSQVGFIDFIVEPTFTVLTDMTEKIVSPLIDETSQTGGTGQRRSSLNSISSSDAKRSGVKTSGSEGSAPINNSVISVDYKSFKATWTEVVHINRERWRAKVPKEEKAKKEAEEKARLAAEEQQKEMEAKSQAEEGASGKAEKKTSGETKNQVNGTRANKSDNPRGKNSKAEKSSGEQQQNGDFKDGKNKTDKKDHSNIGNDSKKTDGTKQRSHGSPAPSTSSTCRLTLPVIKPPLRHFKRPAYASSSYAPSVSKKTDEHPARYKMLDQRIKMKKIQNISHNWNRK

Molecules are shown by their SMILES.

Chain of PDE1B (Q01064 whole entry): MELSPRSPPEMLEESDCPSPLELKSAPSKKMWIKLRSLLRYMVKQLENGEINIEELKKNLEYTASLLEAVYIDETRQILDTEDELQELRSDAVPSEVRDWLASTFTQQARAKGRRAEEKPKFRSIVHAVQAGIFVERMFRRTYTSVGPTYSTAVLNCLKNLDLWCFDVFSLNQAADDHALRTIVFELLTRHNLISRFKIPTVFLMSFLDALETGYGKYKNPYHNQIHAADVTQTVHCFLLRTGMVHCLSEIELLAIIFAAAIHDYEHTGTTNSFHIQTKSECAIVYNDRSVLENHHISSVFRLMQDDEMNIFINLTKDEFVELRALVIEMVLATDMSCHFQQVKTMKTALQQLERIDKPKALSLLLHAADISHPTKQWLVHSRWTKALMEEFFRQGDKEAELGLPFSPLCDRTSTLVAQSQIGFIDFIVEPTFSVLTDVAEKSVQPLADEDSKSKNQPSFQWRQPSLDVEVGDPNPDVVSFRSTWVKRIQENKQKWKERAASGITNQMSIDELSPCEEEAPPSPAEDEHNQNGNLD
Chain of PDE9 (O76083 whole entry): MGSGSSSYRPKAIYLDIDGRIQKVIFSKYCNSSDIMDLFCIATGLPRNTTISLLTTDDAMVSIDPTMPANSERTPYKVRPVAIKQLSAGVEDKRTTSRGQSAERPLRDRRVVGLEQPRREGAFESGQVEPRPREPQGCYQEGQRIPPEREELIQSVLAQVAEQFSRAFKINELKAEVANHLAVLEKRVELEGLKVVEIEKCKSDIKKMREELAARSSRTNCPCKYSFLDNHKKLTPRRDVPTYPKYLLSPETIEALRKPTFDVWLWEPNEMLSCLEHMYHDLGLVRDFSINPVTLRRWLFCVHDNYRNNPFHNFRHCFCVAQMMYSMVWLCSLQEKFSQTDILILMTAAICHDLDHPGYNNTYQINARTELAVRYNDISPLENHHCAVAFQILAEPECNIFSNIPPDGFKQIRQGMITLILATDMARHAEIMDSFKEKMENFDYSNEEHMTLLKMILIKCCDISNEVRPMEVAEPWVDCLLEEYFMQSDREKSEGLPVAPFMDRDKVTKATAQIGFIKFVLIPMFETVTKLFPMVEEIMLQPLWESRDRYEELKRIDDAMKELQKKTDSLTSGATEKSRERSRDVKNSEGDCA

`COc1cccc(Cn2c(C)nn3c(C4CCOCC4)ncc3c2=O)c1` [Example 19, 3-(3-Methoxybenzyl)-2-methyl-7-(tetrahydro-2H-pyran-4-yl)imidazo[5,1-f][1,2,4]triazin-4(3H)-one]: the inhibition at 10 µM on PDE9 amounted to 4%. Moreover, the IC50 is 115 nM against PDE1A, 259 nM against PDE1B and 52 nM against PDE1C.

For `Cc1nn2c(C3CCOCC3)ncc2c(=O)n1Cc1ccccc1F` [Example 20, 3-(2-Fluorobenzyl)-2-methyl-7-(tetrahydro-2H-pyran-4-yl)imidazo[5,1-f][1,2,4]triazin-4(3H)-one], on PDE9, the inhibition at 10 µM worked out at 21%. The IC50 was determined as 54 nM against PDE1A, 139 nM on PDE1B and 15 nM at PDE1C.

For the molecule `Cc1ccccc1Cn1c(C)nn2c(C3CCOCC3)ncc2c1=O` [Example 21, 2-Methyl-3-(2-methylbenzyl)-7-(tetrahydro-2H-pyran-4-yl)imidazo[5,1-f][1,2,4]triazin-4(3H)-one], the inhibition at 10 µM at PDE9 is 13%. Also, the values for the concentration for half-maximal inhibition (IC50) against PDE1A, against PDE1B and at PDE1C were 367 nM, 454 nM and 37 nM, respectively.

For the molecule `Cc1ccc(Cn2c(C)nn3c(C4CCOCC4)ncc3c2=O)cc1` [Example 22, 2-Methyl-3-(4-methylbenzyl)-7-(tetrahydro-2H-pyran-4-yl)imidazo[5,1-f][1,2,4]triazin-4(3H)-one], at PDE9, the inhibition at 10 µM is 18%. Also, the IC50 turned out to be 58 nM against PDE1A, 66 nM against PDE1B and 77 nM against PDE1C.

Regarding `COc1ccc(Cn2c(C)nn3c(C4CCOCC4)ncc3c2=O)cc1` [Example 23, 3-(4-Methoxybenzyl)-2-methyl-7-(tetrahydro-2H-pyran-4-yl)imidazo[5,1-f][1,2,4]triazin-4(3H)-one], the inhibition at 10 µM on PDE9 is -4%. Further, the IC50 on PDE1A was 29 nM; against PDE1B, 26 nM; at PDE1C, 21 nM.

In the case of `Cc1nn2c(C3CCOCC3)ncc2c(=O)n1Cc1ccc(Cl)cc1` [Example 24, 3-(4-Chlorobenzyl)-2-methyl-7-(tetrahydro-2H-pyran-4-yl)imidazo[5,1-f][1,2,4]triazin-4(3H)-one], the inhibition at 10 µM against PDE9 was -11%. The IC50 was determined as 35 nM against PDE1A, 61 nM on PDE1B and 104 nM at PDE1C.

Take `CCc1nn2c(C3CCOCC3)ncc2c(=O)n1Cc1cccc(F)c1` [Example 25, 2-Ethyl-3-(3-fluorobenzyl)-7-(tetrahydro-2H-pyran-4-yl)imidazo[5,1-f][1,2,4]triazin-4(3H)-one]: the inhibition at 10 µM against PDE9 came to 8%. Further, the figures for the 50% inhibitory concentration (IC50) against PDE1A, at PDE1B and at PDE1C were 52 nM, 131 nM and 15 nM, respectively.

As for `O=c1c2cnc(C3CCOCC3)n2ncn1CC1CCCCC1` [Example 26, 3-(Cyclohexylmethyl)-7-(tetrahydro-2H-pyran-4-yl)imidazo[5,1-f][1,2,4]triazin-4(3H)-one], the inhibition at 10 µM against PDE9 is 8%. Further, the figures for the IC50 against PDE1A, against PDE1B and on PDE1C were 554 nM, 376 nM and 103 nM, respectively.

For the molecule `O=c1c2cnc(C3CCOCC3)n2ncn1CC1CCCCCC1` [Example 29, 3-(Cycloheptylmethyl)-7-(tetrahydro-2H-pyran-4-yl)imidazo[5,1-f][1,2,4]triazin-4(3H)-one], the inhibition at 10 µM on PDE9 is 21%. The IC50 against PDE1A turned out to be 33 nM; against PDE1B, 52 nM; against PDE1C it was 25 nM.

Broadly, the inhibition is the change of the read-out against control, counted positive when it falls. What is called IC50 is the point on the concentration scale where inhibition reaches its midpoint. A high value points to weaker potency.
